Data as given in US20220144775A1, “HYDRAZIDE COMPOUND AND KINASE INHIBITOR” (NISSAN CHEMICAL CORPORATION, priority 2019, published 2022).

Experiments:
LATS2 = biological target: T1, LATS2 (Homo sapiens, UniProt Q9NRM7); test: Kinase inhibitory activity against LATS2 (ADP quantification); type: biochemical; details: final concentration 1000 nM; ATP 400 μM; read-out: kinase inhibitory rate
T1 construct: purchased Carna Biosciences
T1 sequence (Q9NRM7 1-1088): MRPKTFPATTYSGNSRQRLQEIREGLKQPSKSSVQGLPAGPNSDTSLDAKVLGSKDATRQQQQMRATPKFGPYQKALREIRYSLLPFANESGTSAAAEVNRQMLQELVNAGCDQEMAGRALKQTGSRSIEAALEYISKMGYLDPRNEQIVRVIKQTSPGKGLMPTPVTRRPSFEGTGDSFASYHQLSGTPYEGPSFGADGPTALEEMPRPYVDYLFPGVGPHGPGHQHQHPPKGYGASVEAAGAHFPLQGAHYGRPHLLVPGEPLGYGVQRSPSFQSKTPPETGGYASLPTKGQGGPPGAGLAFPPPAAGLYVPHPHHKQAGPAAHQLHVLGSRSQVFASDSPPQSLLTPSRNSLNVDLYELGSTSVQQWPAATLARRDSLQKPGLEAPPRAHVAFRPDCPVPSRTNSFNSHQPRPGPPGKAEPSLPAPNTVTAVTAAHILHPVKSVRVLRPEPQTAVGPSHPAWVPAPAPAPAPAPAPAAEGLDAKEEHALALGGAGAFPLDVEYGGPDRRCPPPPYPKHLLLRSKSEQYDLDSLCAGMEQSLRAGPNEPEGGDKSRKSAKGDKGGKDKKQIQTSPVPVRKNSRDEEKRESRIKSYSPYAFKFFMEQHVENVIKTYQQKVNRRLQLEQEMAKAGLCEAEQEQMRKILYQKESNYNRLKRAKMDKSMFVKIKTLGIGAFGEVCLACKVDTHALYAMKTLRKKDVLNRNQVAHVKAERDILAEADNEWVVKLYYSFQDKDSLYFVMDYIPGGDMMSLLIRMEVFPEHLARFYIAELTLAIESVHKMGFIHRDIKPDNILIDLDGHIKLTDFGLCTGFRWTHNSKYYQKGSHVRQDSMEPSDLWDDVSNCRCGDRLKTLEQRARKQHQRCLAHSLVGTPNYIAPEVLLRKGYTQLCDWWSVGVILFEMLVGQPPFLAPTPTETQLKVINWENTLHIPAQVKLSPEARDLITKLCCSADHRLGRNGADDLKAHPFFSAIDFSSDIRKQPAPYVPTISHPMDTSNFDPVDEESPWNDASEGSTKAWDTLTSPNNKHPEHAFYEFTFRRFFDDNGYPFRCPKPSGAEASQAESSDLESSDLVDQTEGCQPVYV
Method: (§1) Evaluation of the inhibitory activity (calculation of kinase inhibitory rate) of the compound of the present invention against LATS1 and LATS2 (manufactured by Carna Biosciences) was performed. The activity was measured using the Kinase Assay method described below. The test concentration of the compound of the present invention was set such that the final concentration was 100 nM or 1000 nM.
(§2) As the analysis method of the data, the mean signal of the control well containing reaction components other than the compound of the present invention was set to 0% inhibition, the mean signal without enzyme addition was set to 100% inhibition, and the inhibition rate was calculated from the mean signal of 2 wells of each compound.
(§3) 2 μL of a compound of the present invention solution at 2.5-fold concentration, 1 μL of substrate at 5-fold concentration (SGKtide: NH2-CKKRNRRLSVA-COOH, manufactured by SignalChem), ATP (manufactured by Sigma-Aldrich), MgCl2 (manufactured by FUJIFILM Wako Pure Chemical Corporation) solution (final concentration 10 μM, 400 μM and 5 mM, respectively), and 2 μL of kinase solution at 2.5-fold concentration (final concentration of LATS1 or LATS2 5 μg/mL), each prepared with assay buffer (20 mM HEPES, 0.01% Triton X-100, 2 mM DTT, 50 μg/mL BSA, pH 7.5), were mixed in the wells of a polypropylene 384-well plate (manufactured by Greiner Bio-One, #784900) and reacted at room temperature for 5 hr. To the solution was added 5 μL detection solution [Fluorospark (registered trade mark) Kinase/ADP Multi-Assay Kit; manufactured by FUJIFILM Wako Pure Chemical Corporation], and the mixture was reacted at room temperature for 30 min. Successively, 5 μL of a reaction quenching liquid [Fluorospark (registered trade mark) Kinase/ADP Multi-Assay Kit; manufactured by FUJIFILM Wako Pure Chemical Corporation] was added to discontinue the reaction. Thereafter, the ADP concentration of the reaction solution was quantified by EnSpire (manufactured by PerkinElmer) to detect the kinase reaction.

LATS1 = biological target: T2, LATS1 (Homo sapiens, UniProt O95835); test: Kinase inhibitory activity against LATS1 (ADP quantification); type: biochemical; details: ATP 400 μM, read-out: kinase inhibitory rate
T2 construct: purchased Carna Biosciences
T2 sequence (O95835 1-1130): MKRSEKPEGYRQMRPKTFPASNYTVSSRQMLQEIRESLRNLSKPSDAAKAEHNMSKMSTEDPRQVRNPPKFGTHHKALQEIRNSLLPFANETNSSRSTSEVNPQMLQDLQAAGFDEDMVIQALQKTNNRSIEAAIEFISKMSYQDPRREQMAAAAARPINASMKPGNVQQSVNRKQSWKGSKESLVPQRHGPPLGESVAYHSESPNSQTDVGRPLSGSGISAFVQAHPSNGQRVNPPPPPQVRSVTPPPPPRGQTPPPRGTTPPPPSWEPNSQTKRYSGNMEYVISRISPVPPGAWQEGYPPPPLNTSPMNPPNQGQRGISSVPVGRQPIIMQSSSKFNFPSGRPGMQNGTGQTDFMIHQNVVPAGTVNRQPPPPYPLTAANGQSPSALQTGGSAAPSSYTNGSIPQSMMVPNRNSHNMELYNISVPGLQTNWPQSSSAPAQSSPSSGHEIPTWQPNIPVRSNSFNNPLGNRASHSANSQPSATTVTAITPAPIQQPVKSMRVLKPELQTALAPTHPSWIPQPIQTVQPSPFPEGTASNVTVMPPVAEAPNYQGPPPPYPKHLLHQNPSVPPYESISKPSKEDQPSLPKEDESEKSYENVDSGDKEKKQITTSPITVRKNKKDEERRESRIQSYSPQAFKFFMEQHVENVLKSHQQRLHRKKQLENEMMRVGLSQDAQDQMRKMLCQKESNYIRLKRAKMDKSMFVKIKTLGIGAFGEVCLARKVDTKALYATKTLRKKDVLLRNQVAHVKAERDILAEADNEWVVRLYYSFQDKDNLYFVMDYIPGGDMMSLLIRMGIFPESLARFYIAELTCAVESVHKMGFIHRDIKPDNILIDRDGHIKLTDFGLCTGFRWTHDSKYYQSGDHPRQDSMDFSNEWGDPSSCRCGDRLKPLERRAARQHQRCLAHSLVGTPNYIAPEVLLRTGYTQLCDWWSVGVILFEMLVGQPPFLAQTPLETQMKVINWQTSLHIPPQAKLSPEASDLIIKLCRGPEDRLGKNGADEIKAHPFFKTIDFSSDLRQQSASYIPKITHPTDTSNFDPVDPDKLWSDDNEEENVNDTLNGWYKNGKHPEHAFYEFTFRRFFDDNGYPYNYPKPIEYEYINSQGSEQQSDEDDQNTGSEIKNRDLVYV
Method: as §1, §2, §3

CC/C(=N\NC(=O)[C@@H](C)Nc1ccc2cccnc2c1)c1ccc(O)c(C)c1O [A-019, (R,E)-N′-[1-(2,4-dihydroxy-3-methylphenyl)propylidene]-2-(quinolin-7-ylamino)propanehydrazide]
≥ 40%: inhibition at 1 µM (LATS2) | inhibition at 0.1 µM (LATS1; final concentration 100 nM) | inhibition at 1 µM (LATS1; final concentration 1000 nM)
